Values quoted from earlier work in US11123293B2, “Liposomal formulation for joint lubrication” (MOEBIUS MEDICAL LTD., priority 2017, dated 2021).
Where “and” joins values, the source holds several entries; their conditions need not be identical. Equal values may be shown once. Read-outs that look alike come from different tables or passages of the source.

What was measured:
[1] = pure phospholipid, literature value
joints of OA patients = settings: injection into joints of OA patients, without major side effects
rabbit's knee = settings: solution, intra-articular injection into a rabbit's knee

| Tm [1] | SMILES | also measured |
| --- | --- | --- |
| 33.0 °C | CCCCCCCCCCCCCCC(=O)OC[C@H](COP(=O)([O-])OCC[N+](C)(C)C)OC(=O)CCCCCCCCCCCCCC [1,2-dipentadecanoyl-sn-glycero-3-phosphocholine] |  |
| 41.0 °C | CCCCCCCCCCCCC/C=C/[C@@H](O)[C@H](COP(=O)([O-])OCC[N+](C)(C)C)NC(=O)CCCCCCCCCCCCCCC [D-erythro C16, N-palmitoyl-D-erythro-sphingosylphosphorylcholine] | Tm ([1]; listed as N-palmitoyl SM): 41 °C |
| 23 °C and ~24 °C | CCCCCCCCCCCCCC(=O)OC[C@H](COP(=O)([O-])OCC[N+](C)(C)C)OC(=O)CCCCCCCCCCCCC [DMPC, 1,2-dimyristoyl-sn-glycero-3-phosphocholine] |  |
| 23 °C | CCCCCCCCCCCCCC(=O)OC[C@H](COP(=O)(O)OCC(O)CO)OC(=O)CCCCCCCCCCCCC (some centres unmarked) [DMPG, 1,2-dimyristoyl-sn-glycero-3-phosphorylglycerol] |  |
| 41 °C and 41.4 °C | CCCCCCCCCCCCCCCC(=O)OC[C@H](COP(=O)([O-])OCC[N+](C)(C)C)OC(=O)CCCCCCCCCCCCCCC [DPPC, 1,2-dipalmitoyl-sn-glycero-3-phosphocholine] | mobility improvement lasting (joints of OA patients): up to 14 weeks |
| 41 °C | CCCCCCCCCCCCCCCC(=O)OC[C@H](COP(=O)(O)OCC(O)CO)OC(=O)CCCCCCCCCCCCCCC (some centres unmarked) [DPPG, 1,2-dipalmitoyl-sn-glycero-3-phosphorylglycerol] |  |
| 55 °C | CCCCCCCCCCCCCCCCCC(=O)OC[C@H](COP(=O)([O-])OCC[N+](C)(C)C)OC(=O)CCCCCCCCCCCCCCCCC [DSPC, 1,2-distearoyl-sn-glycero-3-phosphocholine] |  |
|  | OCC(O)CO [glycerol] | prevention of joint irritation (rabbit's knee): did not prevent irritation |
|  | OC[C@@H](O)[C@@H](O)[C@H](O)[C@H](O)CO [mannitol] | prevention of joint irritation (rabbit's knee): did not prevent irritation |
